≈ marks a conversion by molar mass, not a printed value. Calls of active or inactive are those of the source. The calls are words filed in the database; no cut-off is given here. Residues, ends and D or L forms follow the SMILES beside them.
Experiments:
Enterococcus faecium [1] = experiment: Antibiofilm activity against Enterococcus faecium assessed as inhibition of CV-staining/biomass formation measured after overnight incubation by biofilm inhibition assay; format: functional
Enterococcus faecium [2] = experiment: Antibiofilm activity against Enterococcus faecium assessed as biofilm eradication concentration by Calgary biofilm device assay; format: functional
[3] = Cytotoxicity against PBMC (unknown origin) at 100 ug incubated for 24 hrs by lactate dehydrogenase assay; format: tissue-based; conditions: dose 100 µg
Staphylococcus aureus [4] = experiment: Antibiofilm activity against methicillin resistant Staphylococcus aureus in N/TERT-based epidermal model assessed as reduction in bacterial clusters by H&E staining based histological analysis; format: functional, organism-based
Staphylococcus aureus [5] = experiment: Antibiofilm activity against methicillin-resistant Staphylococcus aureus SAP 0017 assessed as biofilm eradication concentration by Calgary biofilm device assay; format: functional
Staphylococcus aureus [6] = experiment: Antibiofilm activity against methicillin-resistant Staphylococcus aureus USA300 LAC assessed as rough surfaces sprinkled with debris at 16 ug/ml by scanning electron microscopy based assay; format: functional, organism-based; conditions: MRSA USA300 LAC, dose 16.0 µg/ml
Enterococcus faecium [7] = experiment: Antimicrobial activity against Enterococcus faecium assessed as inhibition of bacterial growth incubated for 18 to 20 hrs by broth microdilution assay; format: functional; conditions: time 18-20 hrs
Staphylococcus aureus [8] = experiment: Antibiofilm activity against methicillin resistant Staphylococcus aureus-lux biofilm in N/TERT-based epidermal model assessed as reduction in luminescence treated at 300 ug/ml topically incubated for 4 hrs by ChemiDoc imaging system; format: functional, organism-based; conditions: dose 300.0 µg/ml
Staphylococcus aureus [9] = experiment: Antimicrobial activity against methicillin resistant Staphylococcus aureus in N/TERT-based epidermal model assessed as reduction in bacterial count in epidermis; format: functional, organism-based
Staphylococcus aureus [10] = experiment: Antibacterial activity against methicillin-resistant Staphylococcus aureus USA300 LAC assessed as measuring killing rate at 16 ug/ml measured with in 30 mins by time kill assay; format: functional, organism-based; conditions: MRSA USA300 LAC, dose 16.0 µg/ml
[11] = Toxicity in methicillin resistant Staphylococcus aureus USA300 infected CD-1 mouse assessed as reduction in bacterial load at 2.5 mg/kg, ILES after 3 days; format: organism-based; conditions: in vivo, other, 72 h, time 3 day
[12] = system: Staphylococcus epidermidis; experiment: Antibiofilm activity against Staphylococcus epidermidis ATCC14990 assessed as biofilm eradication concentration by Calgary biofilm device assay; format: functional
Staphylococcus aureus [13] = experiment: Antibiofilm activity against methicillin-resistant Staphylococcus aureus USA300 LAC assessed as inhibition of CV-staining/biomass formation measured after overnight incubation by biofilm inhibition assay; format: functional, MRSA USA300 LAC
[14] = (§1) Immunomodulatory activity in PBMC (unknown origin) assessed as reduction in LPS-induced IL-1beta level by ELISA; format: functional; design: scale not given: the % may be the effect or the level left
[15] = Toxicity in Staphylococcus epidermidis infected CD-1 mouse assessed as reduction in abscess size at 2.5 mg/kg, ILES after 3 days; format: organism-based; design: scale not given: the % may be the effect or the level left; conditions: in vivo, other, 72 h, time 3 day
Staphylococcus aureus [16] = experiment: Antibacterial activity against methicillin resistant Staphylococcus aureus USA300 LAC assessed as change in susceptibility at sub-MIC treated over 14 serial passages by resistance development assay; format: functional, organism-based; conditions: MRSA USA300 LAC
[17] = Toxicity in Staphylococcus epidermidis infected CD-1 mouse assessed as reduction in bacterial load at 2.5 mg/kg, ILES after 3 days; format: organism-based; conditions: in vivo, other, 72 h, time 3 day
[18] = system: Staphylococcus epidermidis; experiment: Antibiofilm activity against Staphylococcus epidermidis ATCC14990 assessed as inhibition of CV-staining/biomass formation measured after overnight incubation by biofilm inhibition assay; format: functional
Staphylococcus aureus [19] = experiment: Antibiofilm activity against methicillin-resistant Staphylococcus aureus USA300 LAC assessed as disruption of mature biofilms by TCC bacterial metabolic assay; format: functional, MRSA USA300 LAC
Staphylococcus aureus [20] = experiment: Antimicrobial activity against methicillin-resistant Staphylococcus aureus USA300 LAC assessed as inhibition of bacterial growth incubated for 18 to 20 hrs by broth microdilution assay; format: functional; conditions: MRSA USA300 LAC, time 18-20 hrs
[21] = system: Staphylococcus epidermidis; experiment: Antimicrobial activity against Staphylococcus epidermidis ATCC14990 assessed as inhibition of bacterial growth incubated for 18 to 20 hrs by broth microdilution assay; format: functional; conditions: time 18-20 hrs
Staphylococcus aureus [22] = experiment: Antibiofilm activity against methicillin-resistant Staphylococcus aureus USA300 LAC assessed as minimal biofilm eradication concentration required for complete inhibition of bacterial growth by Calgary biofilm device assay; format: functional, MRSA USA300 LAC
Staphylococcus aureus [23] = experiment: Antibiofilm activity against methicillin-resistant Staphylococcus aureus SAP 0017 assessed as disruption of mature biofilms by TCC bacterial metabolic assay; format: functional
PBMC [24] = experiment: Immunomodulatory activity in PBMC (unknown origin) assessed as increase in MCP-1 production level at 12.5 ug/ml incubated for 24 hrs by ELISA; format: functional, tissue-based; conditions: dose 12.5 µg/ml
Enterococcus faecium [25] = experiment: Antibiofilm activity against Enterococcus faecium assessed as reduction in viable biofilm cell counts by TCC bacterial metabolic assay; format: functional, organism-based
Staphylococcus aureus [26] = experiment: Antibiofilm activity against methicillin-resistant Staphylococcus aureus USA300 LAC assessed as killing biofilm cells at 16 ug/ml incubated for 4 hrs after SYTO9/PI staining by confocal microscopy; format: functional, MRSA USA300 LAC; conditions: dose 16 µg/ml
Staphylococcus aureus [27] = experiment: Antibiofilm activity against methicillin-resistant Staphylococcus aureus SAP 0017 assessed as inhibition of CV-staining/biomass formation measured after overnight incubation by biofilm inhibition assay; format: functional
[28] = system: Staphylococcus epidermidis; experiment: Antibiofilm activity against Staphylococcus epidermidis ATCC14990 assessed as disruption of mature biofilms by TCC bacterial metabolic assay; format: functional
[29] = Immunomodulatory activity in PBMC (unknown origin) assessed as reduction in LPS-induced IL-10 level by ELISA; format: functional; design: scale not given: the % may be the effect or the level left
Staphylococcus aureus [30] = experiment: Antimicrobial activity against methicillin-resistant Staphylococcus aureus SAP 0017 assessed as inhibition of bacterial growth incubated for 18 to 20 hrs by broth microdilution assay; format: functional; conditions: time 18-20 hrs
PBMC [31] = experiment: as §1; format: functional
[32] = Toxicity in methicillin resistant Staphylococcus aureus USA300 infected CD-1 mouse assessed as reduction in bacterial load at 0.25 mg/kg, ILES after 3 days; format: organism-based; conditions: in vivo, other, 72 h, time 3 day
[33] = Toxicity in Staphylococcus epidermidis infected CD-1 mouse assessed as reduction in bacterial load at 0.25 mg/kg, ILES after 3 days; format: organism-based; conditions: in vivo, other, 72 h, time 3 day

Row | SMILES | MBIC (Enterococcus faecium [1]) | MBEC (Enterococcus faecium [2]) | Activity (Staphylococcus aureus [4]) | MBEC (Staphylococcus aureus [5]) | MIC (Enterococcus faecium [7]) | Activity (Staphylococcus aureus [8]) | MBEC [12] | MBIC (Staphylococcus aureus [13]) | Activity [14] | MBIC [18] | MIC (Staphylococcus aureus [20]) | MIC [21] | MBEC (Staphylococcus aureus [22]) | Activity (Staphylococcus aureus [26]) | MBIC (Staphylococcus aureus [27]) | Activity [29] | MIC (Staphylococcus aureus [30]) | also measured
1 | CC[C@H](C)[C@H](NC(=O)[C@H](CCCNC(=N)N)NC(=O)[C@@H](NC(=O)[C@H](C)NC(=O)[C@@H](NC(=O)[C@@H](NC(=O)[C@H](CC(C)C)NC(=O)[C@H](CCCNC(=N)N)NC(=O)[C@@H](NC(=O)[C@H]1NC(=O)[C@H]2NC(=O)[C@H](NC(=O)[C@@H]3NC(=O)[C@H](CC(N)=O)NC(=O)[C@H](NC(=O)[C@@H](CC(C)C)NC)[C@H](O)c4ccc(c(Cl)c4)Oc4cc3cc(c4O[C@@H]3O[C@H](CO)[C@@H](O)[C@H](O)[C@H]3O[C@H]3C[C@](C)(N)[C@H](O)[C@H](C)O3)Oc3ccc(cc3Cl)[C@H]2O)c2ccc(O)c(c2)-c2c(O)cc(O)cc21)C(C)C)[C@@H](C)CC)C(C)C)C(C)C)C(=O)N[C@@H](Cc1c[nH]c2ccccc12)C(=O)N[C@@H](CCCNC(=N)N)C(=O)N[C@@H](CCCNC(=N)N)C(N)=O | 32 µg/mL | 64 µg/mL | Active | 8 µg/mL | 32 µg/mL (≈ 10.8 µM) | Active | 8 µg/mL | 4 µg/mL | 40% | 8 µg/mL | 4 µg/mL (≈ 1.35 µM) | 4 µg/mL (≈ 1.35 µM) | 8 µg/mL | >90% | 4 µg/mL | 40% | 4 µg/mL (≈ 1.35 µM) | Activity [3]: Non-Toxic; Activity (Staphylococcus aureus [6]): Active; Activity (Staphylococcus aureus [9]): Active; Activity (Staphylococcus aureus [10]): Active; Activity [11]: Non-Toxic; Activity [15]: 90%; Activity (Staphylococcus aureus [16]): inactive; Activity [17]: Non-Toxic; Activity (Staphylococcus aureus [19]): 80%; Activity (Staphylococcus aureus [23]): 80%; Activity (PBMC [24]): Active; Activity (Enterococcus faecium [25]): inactive; Activity [28]: 80%
2 | CC[C@H](C)[C@H](NC(=O)[C@H](CCCNC(=N)N)NC(=O)[C@@H](NC(=O)[C@H](C)NC(=O)[C@@H](NC(=O)[C@@H](NC(=O)[C@H](CC(C)C)NC(=O)[C@H](CCCNC(=N)N)NC(=O)[C@@H](N)C(C)C)[C@@H](C)CC)C(C)C)C(C)C)C(=O)N[C@@H](Cc1c[nH]c2ccccc12)C(=O)N[C@@H](CCCNC(=N)N)C(=O)N[C@@H](CCCNC(=N)N)C(N)=O (H-VRLIVAVRIWRR-NH2) | >64 µg/mL | >128 µg/mL | inactive |  | > 64 µg/mL | Active | 16 µg/mL |  | 40% | 16 µg/mL | 16 µg/mL (≈ 10.4 µM) | 16 µg/mL (≈ 10.4 µM) |  | >75% |  |  | 16 µg/mL (≈ 10.4 µM) | fold change (FC) [17]: > 1000
3 | CCCCCCCCCCCCCCCC[N+](C)(C)Cc1ccccc1.[Cl-] [CETALKONIUM CHLORIDE] | >64 µg/mL | >128 µg/mL |  |  | > 64 µg/mL |  | 16 µg/mL | 4 µg/mL |  | 4 µg/mL | 2 µg/mL | 4 µg/mL | 8 µg/mL |  | 4 µg/mL |  | 2 µg/mL | 
4 | CN[C@H](CC(C)C)C(=O)N[C@H]1C(=O)N[C@@H](CC(N)=O)C(=O)N[C@H]2C(=O)N[C@H]3C(=O)N[C@H](C(=O)N[C@H](C(=O)O)c4cc(O)cc(O)c4-c4cc3ccc4O)[C@H](O)c3ccc(c(Cl)c3)Oc3cc2cc(c3O[C@@H]2O[C@H](CO)[C@@H](O)[C@H](O)[C@H]2O[C@H]2C[C@](C)(N)[C@H](O)[C@H](C)O2)Oc2ccc(cc2Cl)[C@H]1O [VANCOMYCIN] | >128 µg/mL | >128 µg/mL | inactive | >128 µg/mL | > 128 µg/mL | Active | >128 µg/mL | 2 µg/mL |  | 2 µg/mL |  |  | >128 µg/mL | <25% | 2 µg/mL | 5% |  | Activity (PBMC [31]): inactive; Activity [32]: Non-Toxic; Activity [33]: Non-Toxic
